Measured values as given in ChEMBL document CHEMBL1909046, “DrugMatrix in vitro pharmacology data”.

Legend:
[1] = molecular target: T1, Alpha-1B adrenergic receptor (Rattus norvegicus, UniProt P15823); test: DRUGMATRIX: Alpha-1B adrenergic receptor radioligand binding (ligand: prazosin); format: cell membranes, Wistar, Liver, Membrane; conditions: Not Active = under 50% inhibition at 10 µM
T1 sequence (P15823 whole entry): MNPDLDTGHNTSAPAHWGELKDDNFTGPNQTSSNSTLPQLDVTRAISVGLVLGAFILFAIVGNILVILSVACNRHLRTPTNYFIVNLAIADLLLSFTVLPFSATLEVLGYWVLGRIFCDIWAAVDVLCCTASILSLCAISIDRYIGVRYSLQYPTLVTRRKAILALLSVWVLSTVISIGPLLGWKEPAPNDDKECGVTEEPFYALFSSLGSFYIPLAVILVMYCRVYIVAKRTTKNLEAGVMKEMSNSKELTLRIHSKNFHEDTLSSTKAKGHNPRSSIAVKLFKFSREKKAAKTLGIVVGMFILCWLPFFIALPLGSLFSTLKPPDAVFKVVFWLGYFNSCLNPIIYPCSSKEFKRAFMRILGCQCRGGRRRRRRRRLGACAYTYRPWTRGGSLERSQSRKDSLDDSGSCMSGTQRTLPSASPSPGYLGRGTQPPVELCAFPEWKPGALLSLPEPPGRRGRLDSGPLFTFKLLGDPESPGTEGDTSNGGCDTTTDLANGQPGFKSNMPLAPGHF

[2] = molecular target: T2, Type-2 angiotensin II receptor (Homo sapiens, UniProt P50052); format: cell-based; conditions: cho-k1; also: in other assays of this panel Not Active means under 50% inhibition at 10 µM
T2 sequence (P50052 whole entry): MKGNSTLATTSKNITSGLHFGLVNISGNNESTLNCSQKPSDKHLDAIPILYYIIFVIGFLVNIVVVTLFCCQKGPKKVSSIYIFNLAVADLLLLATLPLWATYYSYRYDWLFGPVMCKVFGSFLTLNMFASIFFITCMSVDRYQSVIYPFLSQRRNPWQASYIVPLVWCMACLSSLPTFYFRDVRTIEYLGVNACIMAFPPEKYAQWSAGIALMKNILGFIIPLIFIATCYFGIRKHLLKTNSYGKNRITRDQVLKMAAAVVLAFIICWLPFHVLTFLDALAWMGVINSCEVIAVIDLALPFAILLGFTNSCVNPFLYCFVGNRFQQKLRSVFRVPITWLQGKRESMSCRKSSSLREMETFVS

[3] = DRUGMATRIX: Atrial Natriuretic Factor (ANF) radioligand binding (ligand: [125I] ANF (rat)); format: cell membranes, Cavia porcellus, Dunkin-Hartley, Adrenal gland, Membrane; conditions: Not Active = under 50% inhibition at 10 µM
[4] = molecular target: C-C chemokine receptor type 2 (Homo sapiens, UniProt P41597); format: cell membranes, CHO-K1, Membrane; conditions: cho-k1; also: in other assays of this panel Not Active means under 50% inhibition at 10 µM
[5] = molecular target: T3, C-C chemokine receptor type 4 (Homo sapiens, UniProt P51679); format: cell membranes, Chem-1, Membrane; conditions: chem-1; also: in other assays of this panel Not Active means under 50% inhibition at 10 µM
T3 sequence (P51679 whole entry): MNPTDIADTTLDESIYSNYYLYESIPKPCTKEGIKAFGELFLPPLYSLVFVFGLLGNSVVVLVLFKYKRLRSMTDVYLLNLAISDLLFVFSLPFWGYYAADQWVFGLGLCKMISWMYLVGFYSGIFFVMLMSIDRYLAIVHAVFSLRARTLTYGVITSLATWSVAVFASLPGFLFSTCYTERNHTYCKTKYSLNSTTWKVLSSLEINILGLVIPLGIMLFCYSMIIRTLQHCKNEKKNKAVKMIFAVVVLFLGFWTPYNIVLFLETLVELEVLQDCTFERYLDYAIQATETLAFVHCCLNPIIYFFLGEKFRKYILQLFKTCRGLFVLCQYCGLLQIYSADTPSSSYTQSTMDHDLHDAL

[6] = DRUGMATRIX: Platelet-Derived Growth Factor (PDGF) radioligand binding (ligand: [125I] PDGF); format: cell-based; conditions: nih3t3; Not Active = under 50% inhibition at 10 µM
Cytochrome P450 2D6 = Cytochrome P450 2D6 (Homo sapiens, UniProt P10635); conditions: bti-tn-5b1-4; also: in other assays of this panel Not Active means under 50% inhibition at 10 µM
Estrogen receptor beta = Estrogen receptor beta (Homo sapiens, UniProt Q92731); conditions: sf9; also: in other assays of this panel Not Active means under 50% inhibition at 10 µM
Chain of Estrogen receptor beta (Q92731 whole entry): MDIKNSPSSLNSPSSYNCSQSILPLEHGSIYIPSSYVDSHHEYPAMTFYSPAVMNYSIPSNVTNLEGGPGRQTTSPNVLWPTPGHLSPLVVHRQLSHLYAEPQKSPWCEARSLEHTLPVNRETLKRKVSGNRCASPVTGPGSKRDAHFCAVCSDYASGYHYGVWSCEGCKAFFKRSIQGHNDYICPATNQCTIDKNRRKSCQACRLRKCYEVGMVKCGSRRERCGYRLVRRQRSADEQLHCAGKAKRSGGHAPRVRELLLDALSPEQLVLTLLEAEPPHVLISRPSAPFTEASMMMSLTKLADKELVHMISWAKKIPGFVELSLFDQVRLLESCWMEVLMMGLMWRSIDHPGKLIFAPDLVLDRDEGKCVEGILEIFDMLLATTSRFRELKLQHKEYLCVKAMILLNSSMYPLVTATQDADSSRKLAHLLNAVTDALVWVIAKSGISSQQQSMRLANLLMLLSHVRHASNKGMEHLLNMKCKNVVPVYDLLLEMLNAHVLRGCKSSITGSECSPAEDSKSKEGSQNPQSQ

Chain of Cytochrome P450 2D6 (P10635 whole entry): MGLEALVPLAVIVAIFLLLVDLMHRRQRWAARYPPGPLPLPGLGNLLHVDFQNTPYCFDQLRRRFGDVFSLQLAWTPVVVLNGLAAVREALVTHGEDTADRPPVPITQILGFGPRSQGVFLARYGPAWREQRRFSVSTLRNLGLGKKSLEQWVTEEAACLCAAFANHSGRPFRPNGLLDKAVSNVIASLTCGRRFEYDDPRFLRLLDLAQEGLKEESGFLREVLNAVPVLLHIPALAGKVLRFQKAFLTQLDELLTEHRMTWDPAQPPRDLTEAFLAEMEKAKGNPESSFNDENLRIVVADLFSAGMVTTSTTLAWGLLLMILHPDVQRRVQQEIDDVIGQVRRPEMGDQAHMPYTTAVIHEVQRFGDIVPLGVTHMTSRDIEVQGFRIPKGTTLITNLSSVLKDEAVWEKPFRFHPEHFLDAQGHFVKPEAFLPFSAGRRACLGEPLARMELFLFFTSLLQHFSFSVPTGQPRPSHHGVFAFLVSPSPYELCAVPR
Chain of C-C chemokine receptor type 2 (P41597 whole entry): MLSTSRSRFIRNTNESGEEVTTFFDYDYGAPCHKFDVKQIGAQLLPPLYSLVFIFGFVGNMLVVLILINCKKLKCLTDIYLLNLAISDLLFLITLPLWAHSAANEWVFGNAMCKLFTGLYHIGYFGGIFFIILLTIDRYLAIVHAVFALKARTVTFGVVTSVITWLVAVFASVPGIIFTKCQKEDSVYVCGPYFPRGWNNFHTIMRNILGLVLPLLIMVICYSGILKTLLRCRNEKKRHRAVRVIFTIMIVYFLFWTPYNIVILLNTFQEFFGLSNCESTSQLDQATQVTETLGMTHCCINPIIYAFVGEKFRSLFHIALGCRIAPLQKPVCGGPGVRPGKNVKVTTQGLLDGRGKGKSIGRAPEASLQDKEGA

C[C@]12CC[C@@H](O)C[C@@H]1CC[C@@H]1[C@@H]2CC[C@]2(C)C(=O)CC[C@@H]12 [ANDROSTERONE]
Not Active: IC50 [1] | IC50 [2] | IC50 [3] | Ki [3] | IC50 [4] | IC50 [5] | IC50 [6] | Ki [6] | IC50 (Cytochrome P450 2D6) | Ki (Cytochrome P450 2D6) | IC50 (Estrogen receptor beta)

C[C@H](C(=O)O)c1ccc2oc(-c3ccc(F)cc3)nc2c1 [FLUNOXAPROFEN]
Not Active: IC50 [1] | IC50 [2] | IC50 [3] | Ki [3] | IC50 [4] | IC50 [5] | IC50 [6] | Ki [6] | IC50 (Cytochrome P450 2D6) | Ki (Cytochrome P450 2D6) | IC50 (Estrogen receptor beta)

COPPER(II) OXIDE
Not Active: IC50 [1] | Ki [1] | IC50 [2] | Ki [2] | IC50 [3] | Ki [3] | IC50 [4] | Ki [4] | IC50 [5] | Ki [5] | IC50 [6] | Ki [6] | IC50 (Cytochrome P450 2D6) | Ki (Cytochrome P450 2D6) | IC50 (Estrogen receptor beta) | Ki (Estrogen receptor beta)

COc1ccccc1OCCNCC(O)COc1cccc2[nH]c3ccccc3c12 (stereo not given) [CARVEDILOL]
Not Active: IC50 [2] | IC50 [3] | Ki [3] | IC50 [4] | IC50 [5] | IC50 [6] | Ki [6] | IC50 (Cytochrome P450 2D6) | Ki (Cytochrome P450 2D6) | IC50 (Estrogen receptor beta)

CC(N)Cc1c[nH]c2ccc(OCc3cccs3)cc12 (stereo not given) [BW-723C86]
Not Active: IC50 [1] | IC50 [2] | IC50 [3] | Ki [3] | IC50 [4] | IC50 [5] | IC50 [6] | Ki [6] | IC50 (Estrogen receptor beta)

CCCCCCNC(=O)n1cc(F)c(=O)[nH]c1=O [CARMOFUR]
Not Active: IC50 [1] | IC50 [2] | IC50 [3] | Ki [3] | IC50 [4] | IC50 [5] | IC50 [6] | Ki [6] | IC50 (Estrogen receptor beta)

CN(Cc1cc(Br)cc(Br)c1N)C1CCCCC1 [BROMHEXINE]
Not Active: IC50 [1] | IC50 [2] | IC50 [3] | Ki [3] | IC50 [4] | IC50 [5] | IC50 [6] | Ki [6] | IC50 (Estrogen receptor beta)

Cc1cc(C(C)(C)C)c(O)c(C)c1CC1=NCCN1 [OXYMETAZOLINE]
Not Active: IC50 [2] | IC50 [3] | Ki [3] | IC50 [4] | IC50 [5] | IC50 [6] | Ki [6] | IC50 (Estrogen receptor beta)

CCN(CCO)CCCC(C)Nc1ccnc2cc(Cl)ccc12 (stereo not given) [HYDROXYCHLOROQUINE]
Not Active: IC50 [1] | IC50 [2] | IC50 [3] | Ki [3] | IC50 [4] | IC50 [5] | IC50 [6] | Ki [6] | IC50 (Estrogen receptor beta)

c1ccc(Cn2ccnc2)cc1
Not Active: IC50 [1] | IC50 [2] | IC50 [3] | Ki [3] | IC50 [4] | IC50 [5] | IC50 [6] | Ki [6] | IC50 (Estrogen receptor beta)

C=C(Cl)Cl [1,1-DICHLOROETHENE]
Not Active: IC50 [1] | IC50 [2] | IC50 [3] | Ki [3] | IC50 [4] | IC50 [5] | IC50 [6] | Ki [6] | IC50 (Cytochrome P450 2D6) | Ki (Cytochrome P450 2D6)

ClC1=C(Cl)[C@]2(Cl)[C@@H]3[C@@H]4C[C@@H]([C@H]5O[C@@H]45)[C@@H]3[C@@]1(Cl)C2(Cl)Cl [DIELDRIN]
Not Active: IC50 [1] | IC50 [2] | IC50 [3] | Ki [3] | IC50 [4] | IC50 [5] | IC50 [6] | Ki [6] | IC50 (Cytochrome P450 2D6) | Ki (Cytochrome P450 2D6)

OC[C@H]1O[C@@H]2O[C@H]3[C@H](O)[C@@H](O)[C@@H](O[C@H]4[C@H](O)[C@@H](O)[C@@H](O[C@H]5[C@H](O)[C@@H](O)[C@@H](O[C@H]6[C@H](O)[C@@H](O)[C@@H](O[C@H]7[C@H](O)[C@@H](O)[C@@H](O[C@H]8[C@H](O)[C@@H](O)[C@@H](O[C@H]1[C@H](O)[C@H]2O)O[C@@H]8CO)O[C@@H]7CO)O[C@@H]6CO)O[C@@H]5CO)O[C@@H]4CO)O[C@@H]3CO [BETADEX]
Not Active: IC50 [1] | IC50 [2] | IC50 [3] | Ki [3] | IC50 [4] | IC50 [5] | IC50 [6] | Ki [6] | IC50 (Cytochrome P450 2D6) | Ki (Cytochrome P450 2D6)

COC(=O)Nc1nc2ccc(Sc3ccccc3)cc2[nH]1 [FENBENDAZOLE]
Not Active: IC50 [1] | IC50 [2] | IC50 [3] | Ki [3] | IC50 [4] | IC50 [5] | IC50 [6] | Ki [6] | IC50 (Cytochrome P450 2D6) | Ki (Cytochrome P450 2D6)

C=CCO [ALLYL ALCOHOL]
Not Active: IC50 [1] | IC50 [2] | IC50 [3] | Ki [3] | IC50 [4] | IC50 [5] | IC50 [6] | Ki [6] | IC50 (Cytochrome P450 2D6) | Ki (Cytochrome P450 2D6)

O=C(O)CNCP(=O)(O)O [GLYPHOSATE]
Not Active: IC50 [1] | IC50 [2] | IC50 [3] | Ki [3] | IC50 [4] | IC50 [5] | IC50 [6] | Ki [6] | IC50 (Estrogen receptor beta)
